# Measurements: US10722514B2 (FLX Bio, Inc., priority 2017, dated 2020)
# Counter-ions that a name gives are not always drawn.
# Target: T1, recombinant full-length USP7 (Homo sapiens, UniProt Q93009)
# T1 construct: A 25 μl reaction volume containing recombinant full-length USP7 (62 pM)
# Assay: USP7-mediated ubiquitin-rhodamine cleavage assay
# Assay type: biochemical
# Settings: recombinant full-length USP7 62 pM; ubiquitin-rhodamine 100 nM; 30-minute incubation with compound, 1 hour reaction at room temperature; read-out: Potency: USP7 IC50
# Procedure: In the case of the USP7 deubiquitylating enzyme, the IC50 of an USP7 inhibiting compound is the concentration of the compound that inhibits 50% of the activity observed in a USP7-mediated ubiquitin-rhodamine cleavage assay.
# For the USP7 inhibitors disclosed herein, their potency was measured using the following test method.
# A 25 μl reaction volume containing recombinant full-length USP7 (62 pM) in 20 mM HEPES pH 7.3, 150 mM NaCl, 1 mM TCEP, and 125 μg/ml BSA was assembled in wells of 384 well plates. Test compounds were dispensed with a Hewlett Packard D300 digital dispenser (1% final DMSO). Following a 30-minute incubation at room temperature, ubiquitin-rhodamine was added with the D300 to a final concentration of 100 nM and the reaction was allowed to proceed for 1 hour at room temperature protected from light. The reaction was stopped by the addition of 5 μl 1M acetic acid. Rhodamine fluorescence was measured using an Envision plate reader (Perkin Elmer) and IC50 values were determined by non-linear regression using a 4-parameter fit in a Dotmatics (Bishops Stortford, Hertfordshire, England) software package.
# T1 sequence (Q93009 whole entry): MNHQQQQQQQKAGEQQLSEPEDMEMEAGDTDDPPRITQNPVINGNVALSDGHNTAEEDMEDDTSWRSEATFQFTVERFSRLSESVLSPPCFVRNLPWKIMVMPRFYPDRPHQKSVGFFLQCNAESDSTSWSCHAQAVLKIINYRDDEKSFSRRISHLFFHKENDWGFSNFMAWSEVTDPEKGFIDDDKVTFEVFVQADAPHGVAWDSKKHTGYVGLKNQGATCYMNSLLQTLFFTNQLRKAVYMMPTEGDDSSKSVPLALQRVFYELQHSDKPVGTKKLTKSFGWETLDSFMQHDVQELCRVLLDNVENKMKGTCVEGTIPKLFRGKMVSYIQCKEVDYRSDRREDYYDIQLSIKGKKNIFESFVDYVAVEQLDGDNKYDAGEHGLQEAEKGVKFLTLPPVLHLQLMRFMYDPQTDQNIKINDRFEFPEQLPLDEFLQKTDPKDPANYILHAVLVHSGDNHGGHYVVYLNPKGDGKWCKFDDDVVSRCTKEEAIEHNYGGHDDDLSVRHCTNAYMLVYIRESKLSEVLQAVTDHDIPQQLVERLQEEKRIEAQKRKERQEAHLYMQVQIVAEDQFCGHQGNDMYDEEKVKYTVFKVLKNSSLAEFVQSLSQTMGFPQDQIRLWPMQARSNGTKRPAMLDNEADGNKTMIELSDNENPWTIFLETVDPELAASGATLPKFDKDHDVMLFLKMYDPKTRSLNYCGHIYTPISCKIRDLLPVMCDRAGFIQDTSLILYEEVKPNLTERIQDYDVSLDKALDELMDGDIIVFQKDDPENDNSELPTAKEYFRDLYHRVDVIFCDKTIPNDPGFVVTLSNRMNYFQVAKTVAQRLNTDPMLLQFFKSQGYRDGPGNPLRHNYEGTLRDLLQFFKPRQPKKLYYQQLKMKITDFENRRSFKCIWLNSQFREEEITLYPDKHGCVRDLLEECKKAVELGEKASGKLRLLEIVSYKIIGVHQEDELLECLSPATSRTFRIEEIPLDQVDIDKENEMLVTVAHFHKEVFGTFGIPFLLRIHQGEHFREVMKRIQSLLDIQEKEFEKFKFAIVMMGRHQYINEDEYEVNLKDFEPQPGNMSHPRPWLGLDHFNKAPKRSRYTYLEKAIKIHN
row,IC50 [nM],SMILES
1,1000 to 10000,"CCC(O)c1cc2nccc(-c3cc(Cl)cc(C)c3O[C@@H]3CN[C@H](C(C)(C)O)C3)c2s1 (stereo partly drawn) [Example 86, 1-(7-(5-Chloro-2-(((3S,5S)-5-(2-hydroxypropan-2-yl)pyrrolidin-3-yl)oxy)-3-methylphenyl)thieno[3,2-b]pyridin-2-yl)propan-1-ol]"
2,> 30000,"Cc1cc(Cl)cc(-c2ccnc3cc(CO)sc23)c1O[C@@H]1CNC[C@@H]1C(C)C [Example 68, (7-(5-Chloro-2-(((3S,4S)-4-isopropylpyrrolidin-3-yl)oxy)-3-methylphenyl)thieno[3,2-b]pyridin-2-yl)methanol]"
3,< 1000,"Cc1cc(Cl)cc(-c2ccnc3cc(CN4C(=O)CC5(CCC5)C4=O)sc23)c1O[C@H]1CCCNC1 [Example 317, 6-[[7-[5-chloro-3-methyl-2-[[(3S)-3-piperidyl]oxy]phenyl]thieno[3,2-b]pyridin-2-yl]methyl]-6-azaspiro[3.4]octane-5,7-dione; 2,2,2-trifluoroacetic acid]"
4,< 1000,"Cc1cc(Cl)cc(-c2ncnc3cc(CN4C(=O)C5C(C4=O)C5(C)C)sc23)c1O[C@@H]1CCN(C)C[C@@H]1C (stereo partly drawn) [Example 373, 3-[[4-[5-chloro-2-[[(3S,4R)-1,3-dimethyl-4-piperidyl]oxy]-3-methyl-phenyl]thieno[3,2-d]pyrimidin-6-yl]methyl]-6,6-dimethyl-3-azabicyclo[3.1.0]hexane-2,4-dione dihydrochloride]"
5,1000 to 10000,"CCC(O)c1cc2nccc(-c3cc(Cl)cc(C)c3O[C@H]3CCNC3)c2s1 (stereo partly drawn) [Example 50, 1-(7-(5-Chloro-3-methyl-2-(((S)-pyrrolidin-3-yl)oxy)phenyl)thieno[3,2-b]pyridin-2-yl)propan-1-ol]"
6,< 1000,"Cc1cc(Cl)cc(-c2ccnc3cc(Cn4c(=O)ccn(CC(F)(F)F)c4=O)sc23)c1OC1CNCC1(C)C (stereo not shown) [Example 346, 3-[[7-[5-chloro-2-(4,4-dimethylpyrrolidin-3-yl)oxy-3-methyl-phenyl]thieno[3,2-b]pyridin-2-yl]methyl]-1-(2,2,2-trifluoroethyl)pyrimidine-2,4-dione]"
7,1000 to 10000,"CCC(O)c1cc2nccc(-c3cc(Cl)cc(C)c3OC3CC4CC3CN4)c2s1 (stereo not shown) [Example 197, 1-(7-(2-((2-Azabicyclo[2.2.1]heptan-5-yl)oxy)-5-chloro-3-methylphenyl)thieno[3,2-b]pyridin-2-yl)propan-1-ol]"
8,< 1000,"CN[C@H]1CC[C@H](Oc2c(C)cc(Cl)cc2-c2ccnc3cc(CN4C(=O)CCC4=O)sc23)CC1 [Example 213, 1-((7-(5-Chloro-3-methyl-2-(((1r,4r)-4-(methylamino)cyclohexyl)oxy)phenyl)thieno[3,2-b]pyridin-2-yl)methyl)pyrrolidine-2,5-dione]"
9,< 1000,"Cc1cc(Cl)cc(-c2ccnc3cc(CN4C(=O)CCC4=O)sc23)c1OC1CCNCC1CO (stereo not shown) [Example 234, 1-((7-(5-Chloro-2-((3-(hydroxymethyl)piperidin-4-yl)oxy)-3-methylphenyl)thieno[3,2-b]pyridin-2-yl)methyl)pyrrolidine-2,5-dione]"
10,10000 to 30000,"CN[C@H]1CC[C@H](Oc2c(C)cc(Cl)cc2-c2ccnc3cc(CO)sc23)CC1 [Example 179, (7-(5-Chloro-3-methyl-2-(((1r,4r)-4-(methylamino)cyclohexyl)oxy)phenyl)thieno[3,2-b]pyridin-2-yl)methanol]"
11,1000 to 10000,"OCc1cc2nccc(-c3cc(Cl)cc(C4CC4)c3OCC3CNC3)c2s1 [Example 23, (7-(2-(Azetidin-3-ylmethoxy)-5-chloro-3-cyclopropylphenyl)thieno[3,2-b]pyridin-2-yl)methanol]"
12,< 1000,"Cc1cc(Cl)cc(-c2ccnc3cc(CN4C(=O)CCC4=O)sc23)c1O[C@@H]1CN(C)C[C@@H]1F [Example 124, 1-((7-(5-Chloro-2-(((3R,4S)-4-fluoro-1-methylpyrrolidin-3-yl)oxy)-3-methylphenyl)thieno[3,2-b]pyridin-2-yl)methyl)pyrrolidine-2,5-dione]"
13,10000 to 30000,"Cc1cc(Cl)cc(-c2ccnc3cc(CO)sc23)c1O[C@@H]1CN[C@H](C)C1 [Example 62, (7-(5-Chloro-3-methyl-2-(((3S,5R)-5-methylpyrrolidin-3-yl)oxy)phenyl)thieno[3,2-b]pyridin-2-yl)methanol]"
14,< 1000,"Cc1cc(Cl)cc(-c2ncnc3cc(CN4C(=O)C5CC5C4=O)sc23)c1O[C@@H]1CNC[C@@H]1F (stereo partly drawn) [Example 351, 3-[[4-[5-chloro-2-[(3R,4S)-4-fluoropyrrolidin-3-yl]oxy-3-methyl-phenyl]thieno[3,2-d]pyrimidin-6-yl]methyl]-3-azabicyclo[3.1.0]hexane-2,4-dione dihydrochloride]"
15,< 1000,"Cc1cc(Cl)cc(-c2ncnc3cc(CN4C(=O)C5CC5C4=O)sc23)c1O[C@@H]1CN(C)C[C@@H]1F (stereo partly drawn) [Example 353, 3-[[4-[5-chloro-2-[(3R,4S)-4-fluoro-1-methyl-pyrrolidin-3-yl]oxy-3-methyl-phenyl]thieno[3,2-d]pyrimidin-6-yl]methyl]-3-azabicyclo[3.1.0]hexane-2,4-dione dihydrochloride]"
16,< 1000,"Cc1cc(Cl)cc(-c2ncnc3cc(CN4C(=O)C5C(C4=O)C5(C)C)sc23)c1O[C@@H]1C[C@@H]2C[C@H]1N(C)C2 (stereo partly drawn) [Example 390, 3-[[4-[5-chloro-3-methyl-2-[[(1S,4R,5R)-3-methyl-3-azabicyclo[2.2.1]heptan-5-yl]oxy]phenyl]thieno[3,2-d]pyrimidin-6-yl]methyl]-6,6-dimethyl-3-azabicyclo[3.1.0]hexane-2,4-dione dihydrochloride]"

row,SMILES,IC50 [nM]
1,"Cc1cc(Cl)cc(-c2ccnc3cc(CN4C(=O)C5C(C4=O)C5(C)C)sc23)c1OC1CC(N)C1 (stereo not shown) [Example 357, 3-[[7-[2-(3-aminocyclobutyoxy)-5-chloro-3-methyl-phenyl]thieno[3,2-b]pyridin-2-yl]methyl]-6,6-dimethyl-3-azabicyclo[3.1.0]hexane-2,4-dione; 2,2,2-trifluoroacetic acid]",< 1000

# Same assay, conditions: recombinant full-length USP7 62 pM; ubiquitin-rhodamine 100 nM; 30-minute incubation, 1 hour reaction at room temperature; read-out: Potency (USP7 IC50)
row,IC50 [nM],SMILES
1,< 1000,"Cc1cc(Cl)cc(-c2ccnc3cc(Cn4c(=O)ccn(CC(F)(F)F)c4=O)sc23)c1O[C@@H]1C[C@@H]2NCCO[C@H]2C1 [Example 695, 3-[[7-[2-[[(4aS,6R,7aS)-2,3,4,4a,5,6,7,7a-octahydrocyclopenta[b][1,4]oxazin-6-yl]oxy]-5-chloro-3-methyl-phenyl]thieno[3,2-b]pyridin-2-yl]methyl]-1-(2,2,2-trifluoroethyl)pyrimidine-2,4-dione]"

# Same assay, conditions: recombinant full-length USP7 62 pM; ubiquitin-rhodamine 100 nM; 30-minute pre-incubation, 1 hour reaction at room temperature; read-out: Potency (USP7 IC50)
row,IC50 [nM],SMILES
1,< 1000,"Cc1cc(Cl)cc(-c2ccnc3cc(Cn4c(=O)ccn(CC(F)(F)F)c4=O)sc23)c1OC1C=CCNC1 (stereo not shown) [Example 631, 3-[[7-[5-chloro-3-methyl-2-(1,2,3,6-tetrahydropyridin-3-yloxy)phenyl]thieno[3,2-b]pyridin-2-yl]methyl]-1-(2,2,2-trifluoroethyl)pyrimidine-2,4-dione]"
2,< 1000,"Cc1cc(Cl)cc(-c2ccnc3cc(Cn4c(=O)ccn(CC(F)(F)F)c4=O)sc23)c1O[C@H]1CN[C@H](C(F)F)C1 [Example 574, 3-[[7-[5-chloro-2-[(3R,5S)-5-(difluoromethyl)pyrrolidin-3-yl]oxy-3-methyl-phenyl]thieno[3,2-b]pyridin-2-yl]methyl]-1-(2,2,2-trifluoroethyl)pyrimidine-2,4-dione]"
3,< 1000,"Cc1cc(Cl)cc(-c2ccnc3cc(Cn4c(=O)ccn(C)c4=O)sc23)c1OC1CN2CCC1C2 [Example 529, 3-[[7-[2-[[(1R,3R,4S)-1-azabicyclo[2.2.1]heptan-3-yl]oxy]-5-chloro-3-methyl-phenyl]thieno[3,2-b]pyridin-2-yl]methyl]-1-methyl-pyrimidine-2,4-dione]"
4,< 1000,"Cc1cc(Cl)cc(-c2ccnc3cc(Cn4c(=O)ccn(CC(F)(F)F)c4=O)sc23)c1OCC1(F)CNC1 [Example 641, 3-[[7-[5-chloro-2-[(3-fluoroazetidin-3-yl)methoxy]-3-methyl-phenyl]thieno[3,2-b]pyridin-2-yl]methyl]-1-(2,2,2-trifluoroethyl)pyrimidine-2,4-dione]"
5,< 1000,"Cc1cc(Cl)cc(-c2ncnc3cc(Cn4c(=O)c(F)cn(C(C)C)c4=O)sc23)c1O[C@H]1CCCNC1 [Example 548, 3-[[4-[5-chloro-3-methyl-2-[[(3S)-3-piperidyl]oxy]phenyl]thieno[3,2-d]pyrimidin-6-yl]metthyl]-5-fluoro-1-isopropyl-pyrimidine-2,4-dione]"
6,< 1000,"Cc1cc(Cl)cc(-c2ccnc3cc(Cn4c(=O)ccn(C)c4=O)sc23)c1OC1CCCN(CCC(F)(F)F)C1 (stereo not shown) [Example 507, 3-[[7-[5-chloro-3-methyl-2-[[1-(3,3,3-trifluoropropyl)-3-piperidyl]oxy]phenyl]thieno[3,2-b]pyridin-2-yl]methyl]-1-methyl-pyrimidine-2,4-dione]"

row,SMILES,IC50 [nM]
1,"Cc1cc(Cl)cc(-c2ccnc3cc(Cn4c(=O)ccn(C)c4=O)sc23)c1O[C@@H]1CC[C@@](C)(N)C1 [Example 518, 3-[[7-[2-[(1R,3R)-3-amino-3-methyl-cyclopentoxy]-5-chloro-3-methyl-phenyl]thieno[3,2-b]pyridin-2-yl]methyl]-1-methyl-pyrimidine-2,4-dione; 2,2,2-trifluoroacetic acid]",< 1000
